{"source": "paper PMC6364417", "about": "“Kinase inhibitor library screening identifies synergistic drug combinations effective in sensitive and resistant melanoma cells” (Journal of Experimental & Clinical Cancer Research : CR, 2019)", "assay_in_all_cases": "Kinase inhibitor library screening, PrestoBlue cell viability, 1 or 10 μM, 72 h", "key": {"501Mel cells (parental)": {"system": "501Mel cells (parental)", "settings": "for cell viability (kinase inhibitor library screening): 501Mel Parental", "method_in_brief": "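Kinase inhibitors added at two fixed concentrations; 72 h exposure; PrestoBlue readout; % viability vs untreated; n ≥ 2 per line.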"}, "[1]": {"system": "501Mel-GP cells (Dabrafenib-resistant)", "settings": "for cell viability (kinase inhibitor library screening): 501Mel GP"}, "[2]": {"system": "501Mel-XP cells (Vemurafenib-resistant)", "settings": "for cell viability (kinase inhibitor library screening): 501Mel XP"}, "A375 cells (parental)": {"system": "A375 cells (parental)", "settings": "for cell viability (kinase inhibitor library screening): A375 Parental"}, "[3]": {"system": "A375-GP cells (Dabrafenib-resistant)", "settings": "for cell viability (kinase inhibitor library screening): A375 GP"}, "[4]": {"system": "A375-XP cells (Vemurafenib-resistant)", "settings": "for cell viability (kinase inhibitor library screening): A375 XP"}, "IGR37 cells (parental)": {"system": "IGR37 cells (parental)", "settings": "for cell viability (kinase inhibitor library screening): IGR37 Parental"}, "[5]": {"system": "IGR37-GP cells (Dabrafenib-resistant)", "settings": "for cell viability (kinase inhibitor library screening): IGR37 GP"}, "[6]": {"system": "IGR37-XP cells (Vemurafenib-resistant)", "settings": "for cell viability (kinase inhibitor library screening): IGR37 XP"}}}
{"smiles": "O=C1Nc2ccccc2/C1=C1/Nc2ccccc2C1=O", "note": "[Indirubin]", "values": [{"measurement": "viability at 1 µM", "setting": "501Mel cells (parental); Homo sapiens, 72 h, read-out: cell viability, 501Mel Parental, 1μΜ", "result": 104, "unit": "%"}, {"measurement": "viability at 10 µM", "setting": "501Mel cells (parental); Homo sapiens, 72 h, read-out: cell viability, 501Mel Parental, 10μΜ", "result": 101, "unit": "%"}, {"measurement": "viability at 1 µM", "setting": "[1]; Homo sapiens, 72 h, read-out: cell viability, 501Mel GP, 1μΜ", "result": 102, "unit": "%"}, {"measurement": "viability at 10 µM", "setting": "[1]; Homo sapiens, 72 h, read-out: cell viability, 501Mel GP, 10μΜ", "result": 91.5, "unit": "%"}, {"measurement": "viability at 1 µM", "setting": "[2]; Homo sapiens, 72 h, read-out: cell viability, 501Mel XP, 1μΜ", "result": 88.9, "unit": "%"}, {"measurement": "viability at 10 µM", "setting": "[2]; Homo sapiens, 72 h, read-out: cell viability, 501Mel XP, 10μΜ", "result": 70.4, "unit": "%"}, {"measurement": "viability at 1 µM", "setting": "A375 cells (parental); Homo sapiens, A-375, 72 h, read-out: cell viability, A375 Parental, 1μΜ", "result": 101, "unit": "%"}, {"measurement": "viability at 10 µM", "setting": "A375 cells (parental); Homo sapiens, A-375, 72 h, read-out: cell viability, A375 Parental, 10μΜ", "result": 95.1, "unit": "%"}, {"measurement": "viability at 1 µM", "setting": "[3]; Homo sapiens, A-375, 72 h, read-out: cell viability, A375 GP, 1μΜ", "result": 95.3, "unit": "%"}, {"measurement": "viability at 10 µM", "setting": "[3]; Homo sapiens, A-375, 72 h, read-out: cell viability, A375 GP, 10μΜ", "result": 96.4, "unit": "%"}, {"measurement": "viability at 1 µM", "setting": "[4]; Homo sapiens, A-375, 72 h, read-out: cell viability, A375 XP, 1μΜ", "result": 102, "unit": "%"}, {"measurement": "viability at 10 µM", "setting": "[4]; Homo sapiens, A-375, 72 h, read-out: cell viability, A375 XP, 10μΜ", "result": 103, "unit": "%"}, {"measurement": "viability at 1 µM", "setting": "IGR37 cells (parental); Homo sapiens, IGR-37, 72 h, read-out: cell viability, IGR37 Parental, 1μΜ", "result": 100, "unit": "%"}, {"measurement": "viability at 10 µM", "setting": "IGR37 cells (parental); Homo sapiens, IGR-37, 72 h, read-out: cell viability, IGR37 Parental, 10μΜ", "result": 105, "unit": "%"}, {"measurement": "viability at 1 µM", "setting": "[5]; Homo sapiens, IGR-37, 72 h, read-out: cell viability, IGR37 GP, 1μΜ", "result": 94.7, "unit": "%"}, {"measurement": "viability at 10 µM", "setting": "[5]; Homo sapiens, IGR-37, 72 h, read-out: cell viability, IGR37 GP, 10μΜ", "result": 91.3, "unit": "%"}, {"measurement": "viability at 1 µM", "setting": "[6]; Homo sapiens, IGR-37, 72 h, read-out: cell viability, IGR37 XP, 1μΜ", "result": 95.7, "unit": "%"}, {"measurement": "viability at 10 µM", "setting": "[6]; Homo sapiens, IGR-37, 72 h, read-out: cell viability, IGR37 XP, 10μΜ", "result": 75.6, "unit": "%"}]}
{"smiles": "Nc1nc(Nc2ccc(S(N)(=O)=O)cc2)nn1C(=O)c1c(F)cccc1F", "note": "[JNJ-7706621]", "values": [{"measurement": "cell viability (kinase inhibitor library screening)", "setting": "501Mel cells (parental); 10μΜ, 72 h", "result": 0.466, "unit": "%"}, {"measurement": "cell viability (kinase inhibitor library screening)", "setting": "[1]; 1μΜ, 72 h", "result": 110.0, "unit": "%"}, {"measurement": "cell viability (kinase inhibitor library screening)", "setting": "[1]; 10μΜ, 72 h", "result": 0.28, "unit": "%"}, {"measurement": "cell viability (kinase inhibitor library screening)", "setting": "[2]; 1μΜ, 72 h", "result": 97.8, "unit": "%"}, {"measurement": "cell viability (kinase inhibitor library screening)", "setting": "[2]; 10μΜ, 72 h", "result": -0.273, "unit": "%"}, {"measurement": "cell viability (kinase inhibitor library screening)", "setting": "A375 cells (parental); 10μΜ, 72 h", "result": 5.3, "unit": "%"}, {"measurement": "cell viability (kinase inhibitor library screening)", "setting": "A375 cells (parental); 1μΜ, 72 h", "result": 89.1, "unit": "%"}, {"measurement": "cell viability (kinase inhibitor library screening)", "setting": "[3]; 1μΜ, 72 h", "result": 89.4, "unit": "%"}, {"measurement": "cell viability (kinase inhibitor library screening)", "setting": "[3]; 10μΜ, 72 h", "result": 3.0, "unit": "%"}, {"measurement": "cell viability (kinase inhibitor library screening)", "setting": "[4]; 1μΜ, 72 h", "result": 93.1, "unit": "%"}, {"measurement": "cell viability (kinase inhibitor library screening)", "setting": "[4]; 10μΜ, 72 h", "result": 5.9, "unit": "%"}, {"measurement": "cell viability (kinase inhibitor library screening)", "setting": "IGR37 cells (parental); 1μΜ, 72 h", "result": 95.5, "unit": "%"}, {"measurement": "cell viability (kinase inhibitor library screening)", "setting": "IGR37 cells (parental); 10μΜ, 72 h", "result": 9.4, "unit": "%"}, {"measurement": "cell viability (kinase inhibitor library screening)", "setting": "[5]; 1μΜ, 72 h", "result": 99.1, "unit": "%"}, {"measurement": "cell viability (kinase inhibitor library screening)", "setting": "[5]; 10μΜ, 72 h", "result": 18.2, "unit": "%"}, {"measurement": "cell viability (kinase inhibitor library screening)", "setting": "[6]; 1μΜ, 72 h", "result": 106.1, "unit": "%"}, {"measurement": "cell viability (kinase inhibitor library screening)", "setting": "[6]; 10μΜ, 72 h", "result": 2.5, "unit": "%"}]}
{"smiles": "Cn1cc(-c2ccc3nnc(C(F)(F)c4ccc5ncccc5c4)n3n2)cn1", "note": "[JNJ-38877605]", "values": [{"measurement": "cell viability (kinase inhibitor library screening)", "setting": "501Mel cells (parental); 1μΜ, 72 h", "result": 97.8, "unit": "%"}, {"measurement": "cell viability (kinase inhibitor library screening)", "setting": "501Mel cells (parental); 10μΜ, 72 h", "result": 86.4, "unit": "%"}, {"measurement": "cell viability (kinase inhibitor library screening)", "setting": "[1]; 1μΜ, 72 h", "result": 86.8, "unit": "%"}, {"measurement": "cell viability (kinase inhibitor library screening)", "setting": "[1]; 10μΜ, 72 h", "result": 64.7, "unit": "%"}, {"measurement": "cell viability (kinase inhibitor library screening)", "setting": "[2]; 1μΜ, 72 h", "result": 70.9, "unit": "%"}, {"measurement": "cell viability (kinase inhibitor library screening)", "setting": "[2]; 10μΜ, 72 h", "result": 57.1, "unit": "%"}, {"measurement": "cell viability (kinase inhibitor library screening)", "setting": "A375 cells (parental); 10μΜ, 72 h", "result": 97.6, "unit": "%"}, {"measurement": "cell viability (kinase inhibitor library screening)", "setting": "A375 cells (parental); 1μΜ, 72 h", "result": 99.7, "unit": "%"}, {"measurement": "cell viability (kinase inhibitor library screening)", "setting": "[3]; 10μΜ, 72 h", "result": 97.0, "unit": "%"}, {"measurement": "cell viability (kinase inhibitor library screening)", "setting": "[4]; 1μΜ, 72 h", "result": 105.2, "unit": "%"}, {"measurement": "cell viability (kinase inhibitor library screening)", "setting": "[4]; 10μΜ, 72 h", "result": 100.0, "unit": "%"}, {"measurement": "cell viability (kinase inhibitor library screening)", "setting": "IGR37 cells (parental); 1μΜ, 72 h", "result": 106.0, "unit": "%"}, {"measurement": "cell viability (kinase inhibitor library screening)", "setting": "IGR37 cells (parental); 10μΜ, 72 h", "result": 87.1, "unit": "%"}, {"measurement": "cell viability (kinase inhibitor library screening)", "setting": "[5]; 1μΜ, 72 h", "result": 102.6, "unit": "%"}, {"measurement": "cell viability (kinase inhibitor library screening)", "setting": "[5]; 10μΜ, 72 h", "result": 87.5, "unit": "%"}, {"measurement": "cell viability (kinase inhibitor library screening)", "setting": "[6]; 1μΜ, 72 h", "result": 96.1, "unit": "%"}, {"measurement": "cell viability (kinase inhibitor library screening)", "setting": "[6]; 10μΜ, 72 h", "result": 62.2, "unit": "%"}]}
{"smiles": "CCCNC(=O)Nc1ccc(Oc2ncnc3cc(OC)c(OC)cc23)cc1Cl", "note": "[KRN 633]", "values": [{"measurement": "cell viability (kinase inhibitor library screening)", "setting": "501Mel cells (parental); 1μΜ, in %", "result": 94.4}, {"measurement": "cell viability (kinase inhibitor library screening)", "setting": "501Mel cells (parental); 10μΜ, in %", "result": 91.7}, {"measurement": "cell viability (kinase inhibitor library screening)", "setting": "[1]; 1μΜ, in %", "result": 106.2}, {"measurement": "cell viability (kinase inhibitor library screening)", "setting": "[1]; 10μΜ, in %", "result": 89.7}, {"measurement": "cell viability (kinase inhibitor library screening)", "setting": "[2]; 10μΜ, in %", "result": 80.1}, {"measurement": "cell viability (kinase inhibitor library screening)", "setting": "A375 cells (parental); 1μΜ, in %", "result": 103.4}, {"measurement": "cell viability (kinase inhibitor library screening)", "setting": "A375 cells (parental); 10μΜ, in %", "result": 92.6}, {"measurement": "cell viability (kinase inhibitor library screening)", "setting": "[3]; 1μΜ, in %", "result": 99.0}, {"measurement": "cell viability (kinase inhibitor library screening)", "setting": "[3]; 10μΜ, in %", "result": 89.8}, {"measurement": "cell viability (kinase inhibitor library screening)", "setting": "[4]; 10μΜ, in %", "result": 103.6}, {"measurement": "cell viability (kinase inhibitor library screening)", "setting": "IGR37 cells (parental); 1μΜ, in %", "result": 99.7}, {"measurement": "cell viability (kinase inhibitor library screening)", "setting": "IGR37 cells (parental); 10μΜ, in %", "result": 109.9}, {"measurement": "cell viability (kinase inhibitor library screening)", "setting": "[5]; 1μΜ, in %", "result": 92.2}, {"measurement": "cell viability (kinase inhibitor library screening)", "setting": "[5]; 10μΜ, in %", "result": 93.4}, {"measurement": "cell viability (kinase inhibitor library screening)", "setting": "[6]; 1μΜ, in %", "result": 98.3}, {"measurement": "cell viability (kinase inhibitor library screening)", "setting": "[6]; 10μΜ, in %", "result": 68.5}]}
